“Also recorded” adds a separate entry of the source. Read-outs that look alike come from different tables or passages of the source.

The subject of assay [1] is pH3(Ser 28) in RPE1 cells. The experiment in a line: Substrate phosphorylation immunofluorescence assay, pH3(Ser 28), RPE1. Format: cell-based, human.
Description: After 8 h cells were fixed with 4% PFA for 20 min at room temperature. The fixed cells were washed with PBS. For immunostaining, cells were permeabilized and blocked with PBS containing 10% normal donkey serum (Jackson ImmunoResearch) and 0.1% Triton-X100 for 1 h at room temperature. Primary antibodies against phospho-LATS2 (Ser 83), phospho-histone H3(Ser 28), and anti-phospho-MPM2 (see Table S3 in Supplementary Material) were incubated for 1 h at room temperature. […] Cells were then washed twice with PBS containing 0.1% Triton-X100. […] Fifty fields per well were imaged with quadruplicate wells for each condition. Image analysis was done using the CV7000 image analysis software (Yokogawa Electric Corporation). Between 100 and 1,000 mitotic cells per condition were segmented applying object identification parameters to select for bright MPM2 labeling. Using a nuclear identifier protocol, minimum intensity thresholds were set for pLATS2(Ser 83) and the pH3(Ser 28) signals, and the resulting identified objects were eroded, dilated, and filtered for size by user-defined thresholds. […] The same thresholds were applied for all of the inhibitor-treated samples, which were processed, imaged, and analyzed in parallel with control DMSO-treated cells. Data were fit using a four-parameter, variable slope fit in Prism (GraphPad).
In assay [2] the test system is HeLa cells. The experiment in a line: G2 duration live imaging assay (GFP-PCNA; H2B-RFP), HeLa. Format: cell-based, human.
The subject of assay [3] is pLATS2(Ser 83) in U2OS cells. The experiment in a line: Substrate phosphorylation immunofluorescence assay, pLATS2(Ser 83), U2OS. As to conditions: for IC50: Homo sapiens, read-out: pLATS2 (Ser83) IC50. Format: cell-based, human. The procedure:
(§1) We employed the protocol described in Figure 3D to analyze substrate phosphorylation in HeLa cells following treatment with all 10 inhibitors in dose–response. Asynchronous cells were incubated with vehicle (DMSO) or different inhibitor doses for 8 h and then fixed and labeled with a mixture of three antibodies directed against pLATS2(Ser 83), pH3(Ser 28), and MPM2 [which detects mitotic phosphoepitopes; ([86])]. While both the anti-pLATS2(Ser 83) and MPM2 antibodies are mouse monoclonals, they are of different IgG subclasses [IgG2b for anti-pLATS2(Ser 83) and IgG1 for MPM2], and can thus be detected with subclass-specific secondary antibodies (Table S3 in Supplementary Material).
(§2) In control mitotic cells, pLATS2(Ser 83) is concentrated in foci around the spindle poles (Figure 3E; top row – green arrow) and pH3(Ser 28) is on the mitotic chromatin (Figure 3E; top row – red arrow). Selective kinase inhibition should result in loss of one signal but not the other, as illustrated by the example images for specific conditions in Figure 3E (middle and bottom rows). Cells were imaged in 4 channels to visualize pLATS2(Ser 83), pH3(Ser 28), MPM2, and DNA (labeled with Hoechst) and mitotic cells were segmented based on their bright MPM2 labeling (Figure 3E). Intensity and area thresholds were set to select the pLATS2(Ser 83) foci and the pH3(Ser 28)-labeled chromatin in their respective channels in DMSO-treated control cells and the same thresholds were applied for inhibitor-treated cells. The mean fluorescence intensity per pixel was measured to assess the activities of the kinases targeting these two substrate phosphorylation sites.
(§3) Twelve thousand HeLa cells, 10,000 U2OS cells, or 8,000 RPE1 cells were seeded into 96-well glass-bottom Sensoplates (Greiner) 16 h before inhibitor addition. Prior to seeding, the glass-bottom plates were coated with poly-L-lysine (Sigma). […] After 8 h cells were fixed with 4% PFA for 20 min at room temperature. The fixed cells were washed with PBS. For immunostaining, cells were permeabilized and blocked with PBS containing 10% normal donkey serum (Jackson ImmunoResearch) and 0.1% Triton-X100 for 1 h at room temperature. Primary antibodies against phospho-LATS2 (Ser 83), phospho-histone H3(Ser 28), and anti-phospho-MPM2 (see Table S3 in Supplementary Material) were incubated for 1 h at room temperature. […] Cells were then washed twice with PBS containing 0.1% Triton-X100. Image acquisition in four channels was performed using a CV7000 spinning disk confocal system (Yokogawa Electric Corporation) with a 40 × 0.95 NA U-PlanApo objective and 2560 × 2160 pixel sCMOS camera. […] Fifty fields per well were imaged with quadruplicate wells for each condition. Image analysis was done using the CV7000 image analysis software (Yokogawa Electric Corporation). Between 100 and 1,000 mitotic cells per condition were segmented applying object identification parameters to select for bright MPM2 labeling. Using a nuclear identifier protocol, minimum intensity thresholds were set for pLATS2(Ser 83) and the pH3(Ser 28) signals, and the resulting identified objects were eroded, dilated, and filtered for size by user-defined thresholds. For only the MPM2-positive mitotic cells, the mean fluorescence intensity of the identified pLATS2(Ser 83) and pH3(Ser 28) objects was measured, and the average intensity per cell per well was calculated. The same thresholds were applied for all of the inhibitor-treated samples, which were processed, imaged, and analyzed in parallel with control DMSO-treated cells. Data were fit using a four-parameter, variable slope fit in Prism (GraphPad). Primary and secondary antibody dilutions can be found in Table S3 in Supplementary Material.

Assay [4] concerns the target T1, 363 human kinases (including Aurora A/B/C) (Homo sapiens, UniProt Q9UQB9).
T1 sequence (Q9UQB9 1-309): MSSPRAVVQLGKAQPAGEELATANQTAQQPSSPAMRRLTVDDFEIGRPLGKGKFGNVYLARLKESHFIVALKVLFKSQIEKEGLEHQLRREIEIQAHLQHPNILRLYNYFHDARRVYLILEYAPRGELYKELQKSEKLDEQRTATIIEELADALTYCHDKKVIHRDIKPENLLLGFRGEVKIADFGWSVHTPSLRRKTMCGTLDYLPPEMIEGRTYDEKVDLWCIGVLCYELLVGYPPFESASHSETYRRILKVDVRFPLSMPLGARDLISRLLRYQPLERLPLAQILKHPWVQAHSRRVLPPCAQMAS
The experiment in a line: biochemical. Format: biochemical. As to conditions: Aurora C, [ATP] 30 µM.
Excerpt: However, the Aurora A/B selectivity ratios derived from our in vitro and in vivo data can be compared to prioritize inhibitors.

Assay [5] deals with pAuroraA(Thr 288) in HeLa cells. The experiment in a line: Immunoblotting of Aurora A activation loop phosphorylation. In kind it is cell-based, human. As to conditions: for IC50: Homo sapiens, read-out: IC50 pAuroraA(Thr 288); for Effect on pAuroraA(Thr 288): dose–response.
For assay [6], the system named is Aurora B. As to conditions: cited from earlier work; for IC50: read-out: Aurora B IC50 (Published).
Assay [7] concerns pLATS2(Ser 83) in HeLa cells. The experiment in a line: Substrate phosphorylation immunofluorescence assay, pLATS2(Ser 83), HeLa. In kind it is cell-based, human. The procedure:
as §1, §2, §3

[8] abbreviates: Homo sapiens, read-out: G2/M (G2 duration) IC50, HeLa.
The mark [9] stands for this setting: read-out: G2/M (G2 duration) IC50.

As to `O=C(c1cccc(Cl)c1F)N1CCN(Cc2cccc(Nc3nccs3)n2)CC1` [MK-8745], in assay [1] (RPE1, 8 h inhibitor treatment), the “pHistone H3 (Ser28) IC50” value was “NE@15 µM”. Moreover, the IC50 was 600 to 800 nM in assay [2] (setting [8]); 596 nM in assay [2] (setting [9]); 1700 nM in assay [3] (8 h inhibitor treatment); less than 100 nM in assay [5] (immunoblot, taxol-arrested mitotic lysates); 280 nM in assay [6] (ref 57); 610 nM in assay [7] (HeLa, 8 h inhibitor treatment, read-out: pLATS2 (Ser83) IC50). In assay [7] (Homo sapiens, HeLa, 8 h, HeLa, 8 h inhibitor treatment, read-out: pLATS2 (Ser83) IC50), the IC50 was in the range of 600 to 800 nM. Also, the “% Enzyme Activity (relative to DMSO controls)” value in assay [4] (500 nM) is 46.69%. For the same compound, the remaining activity at 0.5 µM in assay [4] (500 nM, read-out: % Enzyme Activity (relative to DMSO controls)) turned out to be 47.4%. Also, in assay [5] (immunoblot), the “Effect on pAuroraA(Thr 288)” value was “completely eliminate Thr 288 phosphorylation”. Moreover, the “Lowest concentration to maximally inhibit Aurora A in cells relative to lowest AZD1152-HQPA concentration to fully inhibit Aurora B” value in assay [7] (cellular assays) is more than 100 fold.
By Ki is commonly meant a dissociation constant, usually derived from enzyme kinetics or from competition with a known ligand. `CCn1cc(-c2ccnc3[nH]c(-c4cccc(CN(C)C)c4)cc23)c(-c2ccc(NC(=O)N(C)C)cc2)n1` [GSK1070916]: the IC50 in assay [1] (Homo sapiens, RPE-1, 8 h, read-out: pHistone H3 (Ser28) IC50) was 15 nM. The “pLATS2 (Ser83) IC50” value in assay [3] (8 h inhibitor treatment) is recorded as “NE@200 nM”; in assay [7] (HeLa, 8 h inhibitor treatment) it was “NE (100 nM); also recorded: NE@100 nM”. Also, the remaining activity at 0.1 µM in assay [4] (100 nM, read-out: % Enzyme Activity (relative to DMSO controls)) turned out to be 39.7%. Moreover, the “Effect on Aurora A activity (pAuroraA Thr 288)” value in assay [5] (immunoblot, 300 nM (Figure S6)) was “inhibited Aurora A activity”. Moreover, the “Effect on pAuroraA(Thr 288)” value in assay [5] (immunoblot) is reported as “did not affect”. The Ki in assay [6] (ref 61, read-out: Aurora B-INCENP Ki (Published)) was 0.38 nM.
As for `O=C(O)[C@]1(Cc2cccc(Nc3nccs3)n2)CC[C@@H](Oc2cccc(Cl)c2F)CC1` [MK-5108], in assay [1] (Homo sapiens, RPE-1, read-out: pHistone H3 (Ser28) inhibition at highest concentration tested), the inhibition at 15 µM was found to be 80%. In addition, the IC50 in assay [2] (setting [8]) is 600 to 800 nM; in assay [2] (setting [9]), 816 nM; in assay [3] (8 h), 1200 nM; in assay [5] it was less than 100 nM; in assay [6] (ref 56), 14.1 nM; in assay [7] (Homo sapiens, HeLa, 8 h, read-out: pLATS2 (Ser83) IC50, HeLa, 8 h inhibitor treatment) it was 600 to 800 nM. The IC50 in assay [7] (read-out: pLATS2 (Ser83) IC50, HeLa, 8 h inhibitor treatment) is 610 nM. The “Effect on pAuroraA(Thr 288)” value in assay [5] (immunoblot) was “completely eliminate Thr 288 phosphorylation”.

The values are drawn from publication PMC4685510, “A Cell Biologist’s Field Guide to Aurora Kinase Inhibitors” (Frontiers in Oncology, 2015).
